Measured values from publication PMC12010937, “Evaluation of FXR Activity in Pollutants Identified in Sewage Sludge and Subsequent in Vitro and in Vivo Characterization of Metabolic Effects of Triphenyl Phosphate” (Environmental Health Perspectives, 2025).
Where two headings read alike, the source gives them in different places.

System: C57BL/6N mice
Conditions: TPHP-H group, liver
[1] = adduct [M+Na]+, first of two TG 52:3 lines
[2] = adduct [M+Na]+, second of two TG 52:3 lines

Question: `O=P(Oc1ccccc1)(Oc1ccccc1)Oc1ccccc1` [TPHP, triphenyl phosphate] was tested. Which “Z-score of CAR 6:0” value (adduct [M+H]+) did it give?
Answer: 0.97

Question: What about the “Z-score of CAR 10:0” value (adduct [M+H]+) of the same compound?
Answer: 0.72

Question: What about the “Z-score of CAR 12:0” value (adduct [M+H]+) of the same compound?
Answer: 0.32

Question: And the “Z-score of CAR 16:2” value (adduct [M+H]+)?
Answer: 1.03

Question: And the “Z-score of CAR 18:2” value (adduct [M+H]+)?
Answer: 1.01

Question: And the “Z-score of CAR 18:4” value (adduct [M+H]+)?
Answer: 0.35

Question: And the “Z-score of CAR 20:4” value (adduct [M+H]+)?
Answer: 0.29

Question: And the “Z-score of NAE 14:0” value (adduct [M+H]+)?
Answer: -0.67

Question: And the “Z-score of NAE 20:5” value (adduct [M+H]+)?
Answer: -0.01

Question: And the “Z-score of PC 40:6” value (adduct [M+H]+)?
Answer: -0.91

Question: What about the “Z-score of PS 36:4” value (adduct [M+H]+) of the same compound?
Answer: 0.46

Question: What about the “Z-score of SM 27:5;O2” value (adduct [M+H]+) of the same compound?
Answer: 0.61

Question: And the “Z-score of SM 28:3;O3” value (adduct [M+H]+)?
Answer: 0.70

Question: What about the “Z-score of SM 31:3;O3” value (adduct [M+H]+) of the same compound?
Answer: -0.94

Question: And the “Z-score of SM 41:2;O2” value (adduct [M+H]+)?
Answer: 0.44

Question: What about the “average intensity of CAR 6:0” value (adduct [M+H]+) of the same compound?
Answer: 3598107

Question: And the “average intensity of CAR 10:0” value (adduct [M+H]+)?
Answer: 1728654

Question: What about the “average intensity of CAR 12:0” value (adduct [M+H]+) of the same compound?
Answer: 2142093

Question: What about the “average intensity of CAR 16:2” value (adduct [M+H]+) of the same compound?
Answer: 3030917

Question: What about the “average intensity of CAR 18:2” value (adduct [M+H]+) of the same compound?
Answer: 20111001

Question: What about the “average intensity of CAR 18:4” value (adduct [M+H]+) of the same compound?
Answer: 9217007

Question: What about the “average intensity of CAR 20:4” value (adduct [M+H]+) of the same compound?
Answer: 30801597

Question: What about the “average intensity of NAE 14:0” value (adduct [M+H]+) of the same compound?
Answer: 23845

Question: And the “average intensity of NAE 20:5” value (adduct [M+H]+)?
Answer: 31668356

Question: And the “average intensity of PC 40:6” value (adduct [M+H]+)?
Answer: 6977163

Question: What about the “average intensity of PS 36:4” value (adduct [M+H]+) of the same compound?
Answer: 1402007

Question: What about the “average intensity of SM 27:5;O2” value (adduct [M+H]+) of the same compound?
Answer: 18765822

Question: What about the “average intensity of SM 28:3;O3” value (adduct [M+H]+) of the same compound?
Answer: 1926974

Question: What about the “average intensity of SM 31:3;O3” value (adduct [M+H]+) of the same compound?
Answer: 284040

Question: And the “average intensity of SM 41:2;O2” value (adduct [M+H]+)?
Answer: 8959905

Question: And the “Z-score of BMP 25:4” value (adduct [M+NH4]+)?
Answer: -0.92

Question: What about the “Z-score of BMP 30:5” value (adduct [M+NH4]+) of the same compound?
Answer: -0.72

Question: And the “Z-score of BMP 38:4” value (adduct [M+NH4]+)?
Answer: -0.80

Question: And the “Z-score of PG 21:2” value (adduct [M+NH4]+)?
Answer: -0.95

Question: And the “Z-score of PI 39:10” value (adduct [M+NH4]+)?
Answer: -0.92

Question: And the “Z-score of TG 48:11” value (adduct [M+NH4]+)?
Answer: -0.82

Question: What about the “Z-score of TG 55:4” value (adduct [M+NH4]+) of the same compound?
Answer: 1.02

Question: What about the “average intensity of BMP 25:4” value (adduct [M+NH4]+) of the same compound?
Answer: 4738753

Question: And the “average intensity of BMP 30:5” value (adduct [M+NH4]+)?
Answer: 17597

Question: What about the “average intensity of BMP 38:4” value (adduct [M+NH4]+) of the same compound?
Answer: 940807

Question: What about the “average intensity of PG 21:2” value (adduct [M+NH4]+) of the same compound?
Answer: 816725

Question: What about the “average intensity of PI 39:10” value (adduct [M+NH4]+) of the same compound?
Answer: 61034

Question: And the “average intensity of TG 48:11” value (adduct [M+NH4]+)?
Answer: 5429634

Question: What about the “average intensity of TG 55:4” value (adduct [M+NH4]+) of the same compound?
Answer: 11320635

Question: What about the “Z-score of Cer 42:1;O2” value (adduct [M+Na]+) of the same compound?
Answer: -0.92

Question: What about the “Z-score of Cer 64:6;O2” value (adduct [M+Na]+) of the same compound?
Answer: 0.66

Question: What about the “Z-score of DG 19:1” value (adduct [M+Na]+) of the same compound?
Answer: -0.58

Question: What about the “Z-score of DG 26:5” value (adduct [M+Na]+) of the same compound?
Answer: -0.58

Question: And the “Z-score of DG 26:6” value (adduct [M+Na]+)?
Answer: -0.75

Question: And the “Z-score of PC 29:5” value (adduct [M+Na]+)?
Answer: -0.84

Question: And the “Z-score of PC 38:6” value (adduct [M+Na]+)?
Answer: -0.76

Question: What about the “Z-score of PC 42:9” value (adduct [M+Na]+) of the same compound?
Answer: -0.79

Question: And the “Z-score of PS 40:7” value (adduct [M+Na]+)?
Answer: 0.85

Question: What about the “Z-score of TG 52:2” value (adduct [M+Na]+) of the same compound?
Answer: 0.76

Question: And the “Z-score of TG 52:4” value (adduct [M+Na]+)?
Answer: 0.88

Question: What about the “average intensity of Cer 42:1;O2” value (adduct [M+Na]+) of the same compound?
Answer: 679331

Question: And the “average intensity of Cer 64:6;O2” value (adduct [M+Na]+)?
Answer: 17434974

Question: What about the “average intensity of DG 19:1” value (adduct [M+Na]+) of the same compound?
Answer: 4218

Question: What about the “average intensity of DG 26:5” value (adduct [M+Na]+) of the same compound?
Answer: 1190306

Question: And the “average intensity of DG 26:6” value (adduct [M+Na]+)?
Answer: 269918

Question: And the “average intensity of PC 29:5” value (adduct [M+Na]+)?
Answer: 1903378

Question: And the “average intensity of PC 38:6” value (adduct [M+Na]+)?
Answer: 3451074

Question: What about the “average intensity of PC 42:9” value (adduct [M+Na]+) of the same compound?
Answer: 130359

Question: And the “average intensity of PS 40:7” value (adduct [M+Na]+)?
Answer: 5213900

Question: What about the “average intensity of TG 52:2” value (adduct [M+Na]+) of the same compound?
Answer: 10933392

Question: And the “average intensity of TG 52:4” value (adduct [M+Na]+)?
Answer: 3390540

Question: What about the “Z-score of TG 52:3” value [1] of the same compound?
Answer: 0.89

Question: What about the “average intensity of TG 52:3” value [1] of the same compound?
Answer: 1451015

Question: And the “Z-score of TG 52:3” value [2]?
Answer: 0.90

Question: What about the “average intensity of TG 52:3” value [2] of the same compound?
Answer: 11832628

Question: What about the “Z-score of Cer 40:1;O2” value (adduct [M-H]-) of the same compound?
Answer: -0.86

Question: What about the “Z-score of Cer 41:1;3O(2OH)” value (adduct [M-H]-) of the same compound?
Answer: -0.76

Question: What about the “Z-score of Cer 42:1;3O(2OH)” value (adduct [M-H]-) of the same compound?
Answer: -0.75

Question: What about the “Z-score of Cer 43:1;3O(2OH)” value (adduct [M-H]-) of the same compound?
Answer: -0.75

Question: And the “Z-score of FA 10:1” value (adduct [M-H]-)?
Answer: -0.63

Question: What about the “Z-score of FA 14:2” value (adduct [M-H]-) of the same compound?
Answer: 0.87

Question: And the “Z-score of FA 16:2;O” value (adduct [M-H]-)?
Answer: 0.12

Question: And the “Z-score of FA 19:2;O2” value (adduct [M-H]-)?
Answer: 0.47

Question: What about the “Z-score of PG 34:2” value (adduct [M-H]-) of the same compound?
Answer: -0.59

Question: What about the “Z-score of PG 44:12” value (adduct [M-H]-) of the same compound?
Answer: -0.58

Question: And the “Z-score of PI 36:3” value (adduct [M-H]-)?
Answer: -0.62

Question: And the “Z-score of PI 38:4” value (adduct [M-H]-)?
Answer: 0.28

Question: What about the “average intensity of Cer 40:1;O2” value (adduct [M-H]-) of the same compound?
Answer: 112540

Question: What about the “average intensity of Cer 41:1;3O(2OH)” value (adduct [M-H]-) of the same compound?
Answer: 650455

Question: And the “average intensity of Cer 42:1;3O(2OH)” value (adduct [M-H]-)?
Answer: 109690

Question: And the “average intensity of Cer 43:1;3O(2OH)” value (adduct [M-H]-)?
Answer: 95819

Question: And the “average intensity of FA 10:1” value (adduct [M-H]-)?
Answer: 124984

Question: What about the “average intensity of FA 14:2” value (adduct [M-H]-) of the same compound?
Answer: 2337946

Question: And the “average intensity of FA 16:2;O” value (adduct [M-H]-)?
Answer: 718403

Question: What about the “average intensity of FA 19:2;O2” value (adduct [M-H]-) of the same compound?
Answer: 6586718

Question: What about the “average intensity of PG 34:2” value (adduct [M-H]-) of the same compound?
Answer: 89164

Question: And the “average intensity of PG 44:12” value (adduct [M-H]-)?
Answer: 16526

Question: What about the “average intensity of PI 36:3” value (adduct [M-H]-) of the same compound?
Answer: 224637

Question: And the “average intensity of PI 38:4” value (adduct [M-H]-)?
Answer: 36494581
